Results: PubChem BioAssay AID179 (DTP/NCI, 2004)
Activity calls are given as the source filed them.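 Rule for the calls: active = compounds giving half or more protection of infected cells from virus-caused growth loss, again on retest; inactive = the rest.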

Tested on: CEM cells HIV-1 protection, formazan growth assay
Test: NCI AIDS Antiviral Assay
Conditions: for IC50: measured here: growth of uninfected CEM cells
Procedure, shortened: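 Human CEM cells, uninfected and HIV-1-infected, received five drug concentrations, and growth was read by soluble formazan assay. Compounds giving at least 50% protection were retested; reproducible 100% protection defined confirmed active.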

Row | SMILES | EC50 [µM] | IC50 [µM] | outcome
1 | O=C(Nc1ccc(S(=O)(=O)Nc2ccc(N=Nc3ccccc3)cc2)cc1)C(SC1=NC=NC2=NC=NC21)SC1=NC=NC2=NC=NC21 (centres undefined) | > 20 | 3.16 | 
2 | O=C1C(=Cc2cccc(Br)c2)C(=O)c2ccccc21 | 15.5 | 22.9 | 
3 | O=C1C2C(C(=O)N1O)N(Cc1ccccc1)C(=O)N2Cc1ccccc1 (centres undefined) | > 708 | > 708 | 
4 | COc1cccc2c1C(c1cccc3ccccc13)OC2=O (centres undefined) | > 45.7 | 7.94 | 
5 | CC(C)c1cc[n+](/C(C(=S)Nc2cccc(Cl)c2)=C(/[O-])c2ccc([N+](=O)[O-])cc2)cc1 | > 200 | 69.2 | 
6 | CC(C)CC(NC=O)C(=O)NC(Cc1ccccc1)NC(=O)CNC(=O)C(C)NC(=O)OC(C)(C)C (centres undefined) | > 200 | > 200 | 
7 | C[N+](C)(CCO)CCN1c2ccccc2Sc2ccccc21 | > 200 | > 200 | 
8 | O=C(Nc1ccc2oc3ccc(Cl)cc3c(=O)c2c1)c1ccc(Cl)cc1Cl | > 12.3 | > 12.3 | 
9 | COC(=O)C1=C(O)C(C(=O)OC)[C@]2(O)[C@@H](C(=O)OC)[C@H]1C[C@@H](c1ccccc1)[C@@H]2C(=O)OC (some centres undefined) | > 200 | 18.6 | 
10 | NC1=CN2c3ccccc3N(CC(=O)O)C2C=C1 (centres undefined) | > 200 | > 200 | 
11 | COc1ccc2c(c1)N(S(=O)(=O)c1ccc(C)cc1)CC1=C2CCP1(C)=O (centres undefined) |  |  | inactive
12 | CC(=O)OCc1ccc2c(c1)C(O)NC(=O)O2 (centres undefined) | > 200 | 105 | 
13 | CN1CCOC1(C)c1ccccc1O (centres undefined) | > 200 | > 200 | 
14 | O=[N+]([O-])c1ccc(C(Cl)C(Cl)c2ccc(C(Cl)C(Cl)c3ccc([N+](=O)[O-])cc3[N+](=O)[O-])cc2)c([N+](=O)[O-])c1 (centres undefined) | > 12 | 5.13 | 
15 | O=C1c2ccccc2C(=O)c2sc(Nc3ccccc3C(F)(F)F)nc21 | > 200 | 11 | 
16 | O=c1n(-c2ccccc2)c(=O)n2n1Cc1cc3ccccc3cc1-2 | > 79.4 | > 79.4 | 
17 | CCOC(=O)/C(=C/c1ccc(C)cc1)C(=O)c1ccccc1 | > 24.5 | 15.1 | 

Row | SMILES | EC50 [µM] | IC50 [µM] | outcome
18 | Cc1nc2ccccc2c(=O)n1NC(=S)Nc1ccc(Cl)cc1 | > 39.8 | > 39.8 | 
19 | N#CC(c1ccccc1)(c1ccccc1)[C@@H](c1ccccc1)[C@H](Cc1ccccc1)NS(=O)(=O)c1ccccc1 | > 200 | > 200 | 
20 | COc1ccc(/C=C/c2sc3ccccc3[n+]2CCCCI)cc1OC | > 200 | 7.59 | 
21 | [C-]#[N+][C@@]1(C)CCC2C(C)CC[C@@H](C(=C)C)[C@@]23C=C(C)CC[C@H]31 (some centres undefined) | > 200 | 138 | 
22 | COc1ccc(/C=C2\N=C(N/N=C\C(O)C(O)C(O)C(O)CO)NC2=O)cc1 (centres undefined) | > 200 | 107 | 
23 | CCCCCCCCCCCCCCCCCc1nnc(N)o1 |  |  | inactive
24 | COC(=O)c1nc(=S)[nH]c(C(=O)OC)c1C(=O)/C=C/c1ccccc1 | > 191 | 120 | 
25 | O=c1[nH]c(C2CCCCC2)nc2cc(Cl)ccc12 |  |  | inactive
26 | O=C(N/C(=C\c1ccc([N+](=O)[O-])cc1)c1nc2ccccc2[nH]1)c1ccccc1 | > 35.5 | > 35.5 | 
27 | O=C(Cn1c(=O)oc2ccc(C(=O)c3cccc(Cl)c3)cc21)c1ccccc1 | > 200 | 56.2 | 
28 | Cc1cccc(C)c1NC(=O)CN(CC(C)C)CC(O)COc1ccccc1 (centres undefined) | > 200 | 27.5 | 
29 | Cc1ccc(C(C)C)c(OP(=S)(S)Oc2cc(C)ccc2C(C)C)c1 | > 200 | 4.17 | 
30 | N#C/C=C\c1ccc(-c2cc(C(F)(F)F)cc(C(F)(F)F)c2)o1 | > 200 | 46.8 | 
31 | CCOC(=O)COS(=O)(=O)C(F)(F)F | > 1050 | > 1050 | 
32 | COC(=O)CC1CC2(C(=O)OC)c3[nH]c4ccccc4c3CCN2C1=O (centres undefined) | > 224 | > 224 | 
33 | COc1ccc2nc(NC(=O)C(=O)C(C#N)c3ccc(Cl)c(Cl)c3)sc2c1 (centres undefined) |  |  | inactive
34 | NCCN1C(=O)c2ccccc2C1(O)c1ccccc1 (centres undefined) | > 200 | > 200 | 
